The target in assay [1] is T1, human cloned CHRM4 receptor (Homo sapiens, UniProt P08173).
T1 construct: expressed in transfected cells; host or cells: CHO-K1 (M4_CHO)
T1 sequence (P08173 1-479): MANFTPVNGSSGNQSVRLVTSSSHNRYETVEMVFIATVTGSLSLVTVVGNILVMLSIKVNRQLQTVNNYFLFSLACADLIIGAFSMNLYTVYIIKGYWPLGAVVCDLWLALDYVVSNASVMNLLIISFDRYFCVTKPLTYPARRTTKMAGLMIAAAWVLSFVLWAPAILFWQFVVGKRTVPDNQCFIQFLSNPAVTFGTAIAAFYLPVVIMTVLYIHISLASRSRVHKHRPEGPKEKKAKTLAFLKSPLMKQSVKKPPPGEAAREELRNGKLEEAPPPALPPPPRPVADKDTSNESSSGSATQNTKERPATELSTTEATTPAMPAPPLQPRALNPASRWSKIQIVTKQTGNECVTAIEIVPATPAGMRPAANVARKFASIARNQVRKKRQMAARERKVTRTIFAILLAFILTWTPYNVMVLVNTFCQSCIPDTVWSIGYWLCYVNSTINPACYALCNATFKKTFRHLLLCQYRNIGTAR
Description: CHRM4 Ca++ Flux Assay (M4_CHO cells, agonist mode). It is filed as cell-based. The note with it: for Emax: Percent Activity (PA), read-out: M4 FDSS PA %; for EC50: geometric mean if tested more than once, read-out: M4 FDSS EC50. Put shortly: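 CHO-K1 cells stably expressing human M4 were dye-loaded, then held 60 min at RT in Ca/Mg-free HBSS buffer with 20 μM ATP. Ca++ traces were recorded over 3 min after an 11-point compound series in triplicate, agonist mode, with a four-parameter fit. Percent activity is relative to the carbachol EC100; repeat tests are geometric means.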

The target of assay [2] is T2, human cloned CHRM2 receptor (Homo sapiens, UniProt P08172).
T2 construct: expressed in transfected cells; host or cells: CHO-K1 (M2_CHO)
T2 sequence (P08172 1-466): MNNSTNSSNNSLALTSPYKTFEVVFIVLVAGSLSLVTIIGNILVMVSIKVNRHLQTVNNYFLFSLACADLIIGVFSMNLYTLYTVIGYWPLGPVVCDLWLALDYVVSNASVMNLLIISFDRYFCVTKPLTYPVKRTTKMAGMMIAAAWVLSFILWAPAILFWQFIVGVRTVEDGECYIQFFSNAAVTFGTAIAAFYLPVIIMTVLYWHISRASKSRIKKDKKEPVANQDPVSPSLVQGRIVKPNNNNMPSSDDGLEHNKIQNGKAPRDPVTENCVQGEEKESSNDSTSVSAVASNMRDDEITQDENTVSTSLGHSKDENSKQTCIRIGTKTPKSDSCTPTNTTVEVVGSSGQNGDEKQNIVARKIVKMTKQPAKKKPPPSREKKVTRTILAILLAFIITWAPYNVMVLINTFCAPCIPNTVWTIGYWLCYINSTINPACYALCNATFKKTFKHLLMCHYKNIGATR
In words: CHRM2 Ca++ Flux Assay (M2_CHO cells, agonist mode). It is filed as cell-based. To be noted: M2 CHO cells; for EC50: agonist mode, geometric mean if tested more than once, read-out: M2 FDSS EC50; for Emax: Percent Activity (PA) measured to EC100 of Carbachol, read-out: M2 FDSS PA %. In outline:
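CHO-K1 cells stably expressing human CHRM2 were plated overnight at 12K cells/well and loaded with Ca++ dye for 1–2 h. They were then held 60 minutes in HBSS −Ca/−Mg, 20 mM HEPES, 2.5 mM probenecid, 20 μM ATP. Agonist-mode Ca++ flux was read over 3 minutes. Four-parameter fits of triplicates gave percent activity relative to carbachol EC100.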

With `Fc1ccc(OCC2COC2)c(C2CCN([C@@H]3COC4(C3)CN(c3nncs3)C4)CC2)c1` [Example 2A, (S)-7-(4-(5-fluoro-2-(oxetan-3-ylmethoxy)phenyl)piperidin-1-yl)-2-(1,3,4-thiadiazol-2-yl)-5-oxa-2-azaspiro[3.4]octane], in assay [1], the Emax amounted to 79% and the EC50 came out at 24 nM. Besides, in assay [2], the half-maximal effective concentration (EC50) came out at 520 nM and the Emax came out at 46%.

For the compound `Cc1nnc(COc2ccc(F)cc2C2CCN([C@@H]3COC4(C3)CN(c3nnco3)C4)CC2)o1` [Example 2F, (S)-7-(4-(5-fluoro-2-((5-methyl-1,3,4-oxadiazol-2-yl)methoxy)phenyl)piperidin-1-yl)-2-(1,3,4-oxadiazol-2-yl)-5-oxa-2-azaspiro[3.4]octane], in assay [1], the Emax came out at 90% and the EC50 stood at 1 nM. In addition, in assay [2], the EC50 is 113 nM and the Emax is 67%.

Consider `CC1(COc2ccc(F)cc2C2CCN([C@@H]3COC4(C3)CN(c3nncs3)C4)CC2)COC1` [Example 2B, (S)-7-(4-(5-fluoro-2-((3-methyloxetan-3-yl)methoxy)phenyl)piperidin-1-yl)-2-(1,3,4-thiadiazol-2-yl)-5-oxa-2-azaspiro[3.4]octane], for which, in assay [1], the Emax was 71% and the 50% effective concentration (EC50) is 25 nM. For the same compound, in assay [2], the half-maximal effective concentration (EC50) worked out at 416 nM and the Emax was found to be 35%.

Take `CC(C)(O)COc1ccc(F)cc1C1CCN([C@@H]2COC3(C2)CN(c2nnco2)C3)CC1` [Example 1U, (S)-1-(2-(1-(2-(1,3,4-oxadiazol-2-yl)-5-oxa-2-azaspiro[3.4]octan-7-yl)piperidin-4-yl)-4-fluorophenoxy)-2-methylpropan-2-ol]: the Emax in assay [1] amounted to 73%; in assay [2], 0%. For the same compound, the half-maximal effective concentration (EC50) in assay [1] was 90 nM; in assay [2] it was greater than 25000 nM.

Consider `c1ccc(C2CCN([C@@H]3COC4(C3)CN(c3nnco3)C4)CC2)c(-c2ncco2)c1` [Example 1X, (S)-2-(1,3,4-oxadiazol-2-yl)-7-(4-(2-(oxazol-2-yl)phenyl)piperidin-1-yl)-5-oxa-2-azaspiro[3.4]octane], for which, in assay [1], the Emax came to 84% and the EC50 was determined as 112 nM. Also, in assay [2], the EC50 was 2480 nM and the Emax is 25%.

As for `Fc1ccc(OCC2CC3(COC3)C2)c(C2CCN([C@@H]3COC4(C3)CN(c3nnco3)C4)CC2)c1` [Example 2S, (S)-7-(4-(2-((2-oxaspiro[3.3]heptan-6-yl)methoxy)-5-fluorophenyl)piperidin-1-yl)-2-(1,3,4-oxadiazol-2-yl)-5-oxa-2-azaspiro[3.4]octane], the results for the Emax in assay [1] and in assay [2] were 68% and 29%, respectively. In addition, the concentration for a half-maximal effect (EC50) turned out to be 242 nM in assay [1] and 2180 nM in assay [2].

Consider `Cc1nnc(COc2ccc(F)cc2C2CCN([C@@H]3COC4(C3)CN(c3nnco3)C4)CC2)s1` [Example 2E, (S)-7-(4-(5-fluoro-2-((5-methyl-1,3,4-thiadiazol-2-yl)methoxy)phenyl)piperidin-1-yl)-2-(1,3,4-oxadiazol-2-yl)-5-oxa-2-azaspiro[3.4]octane], for which the Emax is 85% in assay [1] and 59% in assay [2]. Moreover, the EC50 in assay [1] worked out at 1 nM; in assay [2], 81 nM.

Regarding `COc1cc(F)ccc1C1CCN([C@@H]2COC3(C2)CN(c2nnco2)C3)CC1` [Example 1S, (S)-7-(4-(4-fluoro-2-methoxyphenyl)piperidin-1-yl)-2-(1,3,4-oxadiazol-2-yl)-5-oxa-2-azaspiro[3.4]octane], in assay [1], the Emax was 68% and the EC50 worked out at 79 nM. In assay [2], the 50% effective concentration (EC50) was found to be 656 nM and the Emax was determined as 13%.

For the origin of these results see patent US11485742B2, “2-azaspiro[3.4]octane derivatives as M4 agonists” (NOVARTIS AG, priority 2019, dated 2022).
